Assay results as given in patent US20080227829A1, “Neurogenic compounds” (priority 2007, published 2008).

Columns and labels:
mice = assay: Morris water maze (acquisition training and probe trial), long-term injection study; assay type: in vivo
Procedure: A six-week study was conducted in which apigenin was administered by injection to mice at two different doses in conjunction with or without daily voluntary exercise (running). Behavioral testing was administered after 30 days of injections using the Morris water maze and object recognition test. Apigenin was dissolved in [10:90] Tween 80: 0.9% NaCl. All compounds were purchased from commercial sources. Aliquots of Tween 80: 0.9% NaCl solutions were used for testing in the in vivo model. Sixty-four mice (age seven wks) were divided into four test groups (sixteen per group) and received either: Injections were administered intraperitoneally (i.p.) for forty-two days total. In addition to test injections, daily i.p. injections of 5-bromo-2-deoxyuridine (BrdU) [10 mg/ml] were administered for the first eight days at a dose of 50 mg/kg. Within each test group, eight mice were randomly selected to receive running exercise. These thirty-two mice (eight mice per injection group) were transferred daily (on Days 1-40 of the study) from their normal static housing to an automated voluntary running wheel cage for two hours a day. Non-running mice remained in their static cages throughout the study. On Day 31, all mice began acquisition training on the Morris water maze immediately following their i.p. injection. See, e.g., Morris, Developments of a water-maze procedure for studying spatial learning in the rat, J. Neurosci. Methods, 11(1) (1984), hereby incorporated herein by reference. Mice were trained for nine consecutive days, receiving two trials a day using a hidden platform paradigm. The platform was located in the northwest (NW) quadrant of the water maze. To measure the effect of apigenin (with or without exercise) on learning, latency to platform was recorded for each trial. After daily training on the water maze, non-running mice were returned to their normal static housing while running mice were placed into their running wheel cages for two hours. On Day 9 of the water maze training, the mice received a probe trial 4 hours after the last training. During the probe trial the platform was removed and retention of memory of the target NW quadrant was recorded.

NeuroD = NeuroD luciferase reporter assay; assay type: cell-based; conditions: 5 mM apigenin; cells first allowed to proliferate with FGF2 for twenty-four hours; 2-day treatment
Procedure: Adult neural progenitor cells were plated in N2 media containing FGF2 for twenty-four hours. See Bottenstein et al., Growth of a rat neuroblastoma cell line in serum-free supplemented medium, Proc. Natl. Acad. Sci. USA 76(1) (1979) (describing components of N2 media).
The cells were replaced with fresh N2 media (without FGF2) and apigenin was added. In all experiments, 5 mM apigenin dissolved in DMSO was used. As a positive control for neuronal differentiation, N2 media containing retinoic acid (RA) and forskolin (FSK) was used. As a negative control, N2 media and the equivalent amount of DMSO or N2 was used. Either a NeuroD luciferase reporter assay (purchased from Promega, cat. No. e-1980, Dual-Luciferase Reporter 1000 Assay System) was performed two days later or immunohistochemistry was performed four days later. […]

[1] = system: Adult neural progenitor cells; assay: Immunohistochemistry with lineage-specific markers (Tuj 1, GFAP, RIP); assay type: cell-based
Procedure: Adult neural progenitor cells were plated in N2 media containing FGF2 for twenty-four hours. See Bottenstein et al., Growth of a rat neuroblastoma cell line in serum-free supplemented medium, Proc. Natl. Acad. Sci. USA 76(1) (1979) (describing components of N2 media). The cells were replaced with fresh N2 media (without FGF2) and apigenin was added. In all experiments, 5 mM apigenin dissolved in DMSO was used. As a positive control for neuronal differentiation, N2 media containing retinoic acid (RA) and forskolin (FSK) was used. As a negative control, N2 media and the equivalent amount of DMSO or N2 was used. Either a NeuroD luciferase reporter assay (purchased from Promega, cat. No. e-1980, Dual-Luciferase Reporter 1000 Assay System) was performed two days later or immunohistochemistry was performed four days later. The immunohistochemical analysis of the apigenin-treated and control cells was performed by fixing and staining the cells after four days with lineage-specific markers (Tuj 1 for neurons, GFAP for astrocytes, and RIP for oligodendrocytes). Tuj 1 is a neuron-specific class III beta-tubulin used as a marker for new neurons. GFAP (glial fibrillary acidic protein), an intermediate-filament protein which is expressed almost exclusively in the astrocytes of the central nervous system, is used as a marker for new astrocytes. RIP is a monoclonal antibody used as an early marker of developing oligodendrocytes.

[2] = 5 mM apigenin, cells first proliferating in FGF2, four days

NeuroD-activation (luciferase) as compared to activation by RA+FSK (NeuroD): two-fold higher
Structure (SMILES): O=c1cc(-c2ccc(O)cc2)oc2cc(O)cc(O)c12 [apigenin]
probe trial: frequency into target quadrant (mice; 12.5 mg/kg i.p., non-runners, p<0.06): trend toward significance
latency to platform (acquisition phase) (mice; 12.5 mg/kg i.p., non-runners, vs control): No significant differences
probe trial: frequency into target quadrant (mice; 12.5 mg/kg i.p., runners, p<0.001): significant preference for the target quadrant
latency to platform (acquisition phase) (mice; 12.5 mg/kg i.p., runners, vs control runners and control non-runners, p<0.05): significantly shorter latencies
probe trial: frequency into target quadrant (mice; 25 mg/kg i.p., non-runners, p<0.05): significant preference for the target quadrant
latency to platform (acquisition phase) (mice; 25 mg/kg i.p., non-runners, vs control runners, p<0.05): significantly different from the control runners
probe trial: frequency into target quadrant (mice; 25 mg/kg i.p., runners, p<0.06): strong preference for entering the target quadrant more frequently than other quadrants, although this is not statistically significant
latency to platform (acquisition phase) (mice; 25 mg/kg i.p., runners, vs control runners and control non-runners, p<0.05): significantly shorter latencies
probe trial: total duration of time spent in the quadrants (mice; 12.5 and 25 mg/kg i.p., runners and non-runners): no significant differences among the groups
probe trial: frequency in quadrants (FIG. 1 legend) (mice; apigenin treated mice, runners and non-runners): entered the target quadrant more frequently than all other quadrants
learning (summary of water maze) (mice; with or without exercise): increases learning with or without exercise
astrocyte (GFAP) differentiation [1, 2]: 1-5%
oligodendrocyte (RIP) differentiation [1, 2]: 1-5%
percentage of Tuj 1-positive neurons ([1]; 5 mM apigenin, directly plated into N2 media without FGF2, four days): 5 to 30%
difference in Tuj 1 or Map2ab-positive neurons with or without FGF-2 pre-treatment ([1]; repeated experiments): no significant difference
